How the values were obtained:
[1] = tested on: lung cancer cell line H460; assay: In vitro cell inhibition assay (crystal violet), lung cancer H460; format: cell-based, human
Description: (§1) In vitro Cell inhibition assay is as follows:
(§2) The human cancer cell lines used for this assay were bladder cancer J82, T24, prostate cancer LNCap, PC-3, lung cancer A549, H157, H460, H520, colon cancer HCT8, HCT116, RkO, and leukemia HL-60, etc.
(§3) In vitro cell culture technology was selected for the determination of inhibition rate bladder cancer cell lines J82 and T24, prostate cancer cell lines LNCap and PC-3, lung cancer cell lines A549, H157, H460 and H520. 1000 to 3000 cells were inoculated to 24-well plate, followed by addition of 1 mL culture medium well known to researchers in this field to each well, the cells were cultured in 5% incubator for 24 hours at 37° C., then the different concentration compounds and controls were added to each well. It should be noted that the added volume is not more than 0.5% of total volume. After completion of addition, the cells continued being cultured in incubator for one week, the culture medium was removed and washed by cold PBS of 1 mL once, and then fixed for 10 minutes at room temperature with 1% formalin, followed by wash with PBS of 1 mL. After fixation, stain was carried out with 0.1% crystal violet for 30 minutes. 0.1% crystal violet was recycled. The stained cells were washed gently with deionized water, dried at room temperature and kepted. The inhibition rate was calculated according to the foiling equation. The controls are Selumetinib (AZD6244), Gefitinib, Cisplatin. Inhibition rate=number of left cells each treatment/number of left cells of untreated control×100%

colon cancer HCT116 = assay: In vitro cell inhibition assay, colon cancer HCT116; format: cell-based, human
Description: as §1, §2

[2] = tested on: lung cancer cell line A549; assay: In vitro cell inhibition assay (crystal violet), lung cancer A549; format: cell-based, human
Description: as §1, §2, §3

colon cancer HCT8 = assay: In vitro cell inhibition assay, colon cancer HCT8; format: cell-based, human
Description: as §1, §2

[3] = tested on: lung cancer cell line H520; assay: In vitro cell inhibition assay (crystal violet), lung cancer H520; format: cell-based, human
Description: as §1, §2, §3

colon cancer RkO = assay: In vitro cell inhibition assay, colon cancer RkO; format: cell-based, human
Description: as §1, §2

[4] = tested on: human leukemia HL-60 cells; assay: Proliferation inhibition of human leukemia HL-60 cells, MTT method; format: cell-based; conditions: 48 h incubation, OPTI-MEM medium
Protocol: The inhibition rate of human leukemia HL-60 cells was evaluated by regular MTT method. The human leukemia HL-60 cells were picked up from cell incubator, after washed for twice using PBS, cells were digested by 0.25% trypsin, and then add medium to terminate the digestion. After cells were collected using centrifuge and re-suspended, counting cells under inverted microscope and adding medium to make a density which was 5×10^4 cells/mL. After 100 μL aliquots were added to each well of 96-well microtiter plates, cells were cultured in 5% incubator for overnight at 37° C., then the different concentration compounds were added to each well. After incubation for 48 h, MTT solution was added to each well and plates were then incubated for 4 h. The MTT tetrazolium was reduced to formazan by living cells. Then the formazan crystals were dissolved though adding DMSO to each well. The absorbance was read at 570 nm with a microplate reader.

[5] = tested on: bladder cancer cell line T24; assay: In vitro cell inhibition assay (crystal violet), bladder cancer T24; format: cell-based, human
Description: as §1, §2, §3

[6] = tested on: bladder cancer cell line J82; assay: In vitro cell inhibition assay (crystal violet), bladder cancer J82; format: cell-based, human
Description: as §1, §2, §3

Structure (SMILES)	Inhibition rate on human cancer cells ([1]; H460, 0.5 μM) [%]	Inhibition rate on human cancer cells ([1]; H460, 1.0 μM) [%]	Inhibition rate on human cancer cells ([1]; H460, 2.5 μM) [%]	Inhibition rate on human cancer cells ([1]; H460, 5.0 μM) [%]	Inhibition rate on human cancer cells (colon cancer HCT116; HCT 116, 0.25 μM) [%]	Inhibition rate on human cancer cells (colon cancer HCT116; HCT 116, 0.5 μM) [%]	Inhibition rate on human cancer cells (colon cancer HCT116; HCT 116, 1.0 μM) [%]	Inhibition rate on human cancer cells (colon cancer HCT116; HCT 116, 2.5 μM) [%]	Inhibition rate on human cancer cells (colon cancer HCT116; HCT 116, 5.0 μM) [%]	Inhibition rate on human cancer cells ([2]; A549, 0.25 μM) [%]	Inhibition rate on human cancer cells ([2]; A549, 0.5 μM) [%]	Inhibition rate on human cancer cells ([2]; A549, 1.0 μM) [%]	Inhibition rate on human cancer cells ([2]; A549, 2.5 μM) [%]	Inhibition rate on human cancer cells ([2]; A549, 5.0 μM) [%]	Inhibition rate on human cancer cells (colon cancer HCT8; HCT 8, 0.25 μM) [%]	Inhibition rate on human cancer cells ([3]; H520, 0.25 μM) [%]	Inhibition rate on human cancer cells ([3]; H520, 0.5 μM) [%]	Inhibition rate on human cancer cells ([3]; H520, 1.0 μM) [%]	Inhibition rate on human cancer cells ([3]; H520, 2.5 μM) [%]	Inhibition rate on human cancer cells ([3]; H520, 5.0 μM) [%]	further results
COC=C(C(=O)OC)c1ccccc1COc1ccc2c3c(c(=O)oc2c1C)CCCC3 [Compound 28-129]	70	95	100	100	90	95	100	100	100	90	95	100	100	100	80	85	95	100	100	100	Inhibition rate on human cancer cells (colon cancer HCT8; HCT 8, 0.5 μM): 95%; Inhibition rate on human cancer cells (colon cancer HCT8; HCT 8, 1.0 μM): 100%; Inhibition rate on human cancer cells (colon cancer HCT8; HCT 8, 2.5 μM): 100%; Inhibition rate on human cancer cells (colon cancer HCT8; HCT 8, 5.0 μM): 100%; Inhibition rate on human cancer cells (colon cancer RkO; 0.25 μM): 85%; Inhibition rate on human cancer cells (colon cancer RkO; 0.5 μM): 99%; Inhibition rate on human cancer cells (colon cancer RkO; 1.0 μM): 100%; Inhibition rate on human cancer cells (colon cancer RkO; 2.5 μM): 100%; Inhibition rate on human cancer cells (colon cancer RkO; 5.0 μM): 100%
COC=C(C(=O)OC)c1ccccc1COc1ccc2c(C(F)(F)F)cc(=O)oc2c1 [Compound 28-7]			80	95									70	90					80	100	Proliferation inhibitory effect on human leukemia HL-60 cell (%) ([4]; concentration 1 μM): 42.3%; Proliferation inhibitory effect on human leukemia HL-60 cell (%) ([4]; concentration 10 μM): 71.0%; Proliferation inhibitory effect on human leukemia HL-60 cell (%) ([4]; concentration 100 μM): 83.9%
N.N.[Cl][Pt][Cl] [Cisplatin, reference compound]	0	5	30	90	0	0	5	20	50	0	0	5	30	80	5	0	5	20	30	50	Inhibition rate on human cancer cells ([5]; T24, 0.25 μM): 0%; Inhibition rate on human cancer cells ([5]; T24, 0.5 μM): 0%; Inhibition rate on human cancer cells ([5]; T24, 1.0 μM): 0%; Inhibition rate on human cancer cells ([5]; T24, 2.5 μM): 5%; Inhibition rate on human cancer cells ([5]; T24, 5.0 μM): 20%; Inhibition rate on human cancer cells ([1]; H460, 0.25 μM): 0%; Inhibition rate on human cancer cells ([6]; J82, 0.25 μM): 0%; Inhibition rate on human cancer cells ([6]; J82, 0.5 μM): 0%; Inhibition rate on human cancer cells ([6]; J82, 1.0 μM): 0%; Inhibition rate on human cancer cells ([6]; J82, 2.5 μM): 5%; Inhibition rate on human cancer cells ([6]; J82, 5.0 μM): 20%; Inhibition rate on human cancer cells (colon cancer HCT8; HCT 8, 0.5 μM): 10%; Inhibition rate on human cancer cells (colon cancer HCT8; HCT 8, 1.0 μM): 50%; Inhibition rate on human cancer cells (colon cancer HCT8; HCT 8, 2.5 μM): 70%; Inhibition rate on human cancer cells (colon cancer HCT8; HCT 8, 5.0 μM): 90%; Inhibition rate on human cancer cells (colon cancer RkO; 0.25 μM): 0%; Inhibition rate on human cancer cells (colon cancer RkO; 0.5 μM): 5%; Inhibition rate on human cancer cells (colon cancer RkO; 1.0 μM): 10%; Inhibition rate on human cancer cells (colon cancer RkO; 2.5 μM): 50%; Inhibition rate on human cancer cells (colon cancer RkO; 5.0 μM): 70%
CO/C=C(/C(=O)OC)c1ccccc1COc1ccc(C(F)(F)F)cc1Cl [compound B, flufenoxystrobin]																					inhibition at 0.25 µM ([6]; Homo sapiens, J82, 0.25 μM, read-out: Inhibition rate on human cancer cells): 0%; inhibition at 0.5 µM ([6]; Homo sapiens, J82, 0.5 μM, read-out: Inhibition rate on human cancer cells): 50%; inhibition at 1 µM ([6]; Homo sapiens, J82, 1.0 μM, read-out: Inhibition rate on human cancer cells): 90%; inhibition at 2.5 µM ([6]; Homo sapiens, J82, 2.5 μM, read-out: Inhibition rate on human cancer cells): 95%; inhibition at 5 µM ([6]; Homo sapiens, J82, 5.0 μM, read-out: Inhibition rate on human cancer cells): 100%
CCCc1c(C)c2ccc(OCc3ccccc3C(=COC)C(=O)OC)cc2oc1=O [Compound 28-27]		80	95	95								80	90	95			95	100	100	100	Proliferation inhibitory effect on human leukemia HL-60 cell (%) ([4]; concentration 1 μM): 59.0%; Proliferation inhibitory effect on human leukemia HL-60 cell (%) ([4]; concentration 10 μM): 79.9%; Proliferation inhibitory effect on human leukemia HL-60 cell (%) ([4]; concentration 100 μM): 83.9%
COC=C(C(=O)OC)c1ccccc1COc1ccc2c(C)c(F)c(=O)oc2c1 [Compound 28-50]		70	90	95										90		30	50	60	80	100	Proliferation inhibitory effect on human leukemia HL-60 cell (%) ([4]; concentration 1 μM): 47.1%; Proliferation inhibitory effect on human leukemia HL-60 cell (%) ([4]; concentration 10 μM): 83.1%; Proliferation inhibitory effect on human leukemia HL-60 cell (%) ([4]; concentration 100 μM): 84.8%
COC=C(C(=O)OC)c1ccccc1COc1ccc2c3c(c(=O)oc2c1)CCCC3 [Compound 28-128]	100	100	100	100	95	100	100	100	100	70	100	100	100	100	95	70	100	100	100	100	Inhibition rate on human cancer cells ([1]; H460, 0.25 μM): 80%; Inhibition rate on human cancer cells (colon cancer HCT8; HCT 8, 0.5 μM): 100%; Inhibition rate on human cancer cells (colon cancer HCT8; HCT 8, 1.0 μM): 100%; Inhibition rate on human cancer cells (colon cancer HCT8; HCT 8, 2.5 μM): 100%; Inhibition rate on human cancer cells (colon cancer HCT8; HCT 8, 5.0 μM): 100%; Inhibition rate on human cancer cells (colon cancer RkO; 0.25 μM): 99%; Inhibition rate on human cancer cells (colon cancer RkO; 0.5 μM): 100%; Inhibition rate on human cancer cells (colon cancer RkO; 1.0 μM): 100%; Inhibition rate on human cancer cells (colon cancer RkO; 2.5 μM): 100%; Inhibition rate on human cancer cells (colon cancer RkO; 5.0 μM): 100%
